target: T1, human MT2 receptor (Homo sapiens, UniProt P49286); experiment: Activation of human MT2 receptor in receptor-expressing HEK293 cells (intracellular Ca2+, FLIPR); assay type: cell-based; settings: HEK293; maximum reaction by ramelteon taken as 100%, solvent only 0%
T1 sequence (P49286 1-362): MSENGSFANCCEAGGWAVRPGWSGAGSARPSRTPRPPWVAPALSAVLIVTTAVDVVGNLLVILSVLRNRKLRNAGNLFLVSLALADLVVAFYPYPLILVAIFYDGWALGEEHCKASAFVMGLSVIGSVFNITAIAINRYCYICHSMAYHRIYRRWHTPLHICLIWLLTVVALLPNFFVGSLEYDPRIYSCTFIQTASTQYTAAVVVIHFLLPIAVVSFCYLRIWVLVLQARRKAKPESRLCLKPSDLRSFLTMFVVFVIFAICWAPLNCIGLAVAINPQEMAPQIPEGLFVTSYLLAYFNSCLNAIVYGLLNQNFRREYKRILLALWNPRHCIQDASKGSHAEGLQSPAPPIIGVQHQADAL
Method: (§1) (1) Isolation of Human MT1 and MT2 Receptor and Construction of Expression Vector
(§2) A human MT1 receptor gene (GenBank Accession No.: NM_005958.3) and a human MT2 receptor gene (GenBank Accession No.: NM_005959.3) were each introduced into an expression vector pCDNA3.1/Zeo (Invitrogen, Inc.).
(§3) (2) Construction of Cells Stably Expressing Human MT1 and Human MT2 Receptor
(§4) The introduction was carried out according to the attached instructions, using a Lipofectoamine (registered trademark) 2000 Reagent (Invitrogen, Inc.). Zeocin and hygromycin were used as a resistant drug, and the cell was incubated for 15 days at 0.02 mg/mL and 0.05 mg/mL, respectively, thereby acquiring drug-resistant clones.
(§5) (3) Measurement of Intracellular Ca^2+ Concentration by FLIPR (Registered Trademark)
(§6) The respective stably expressing cells were dispensed into 96-well poly-D-lysine-coated plates (Falcon Co.) to 40,000 cells/well the day before the experiment, and incubated overnight in a DMEM (Invitrogen, Inc.) medium including 10% FBS at 37° C. and 5% CO2. The medium was replaced with a loading buffer (washing solution (Hank's balanced salt solution (HBSS), 20 mM HEPES-NaOH, 2.5 mM probenecid) including Fluo-4AM (Dojindo Co.) at 4 μM), and incubated for 1 hour at 37° C. and 5% CO2. Thereafter, the cells were washed with a plate washer (ELx405, BIO-TEK Instrument, Inc.) set with the washing solution, and set in an intracellular Ca^2+ concentration measuring systems (FLIPR (registered trademark), Molecular Device Co.). The test compound was dissolved in the washing solution in advance, diluted to a final concentration of −12 to −5 log M, set in a FLIPR (registered trademark) device together with the cells, and added to the cells in the device. At this time, a change in the intracellular Ca^2+ concentrations was measured.
(§7) Ex represents Example No. of the test compound.

Structure (SMILES)	Emax
CCCC(=O)NCCc1c(C(=O)NC)[nH]c2cc(Cl)c(OC)cc12 [Ex 34, 3-[2-(butyrylamino)ethyl]-6-chloro-5-methoxy-N-methyl-1H-indole-2-carboxamide]	92%
CNC(=O)c1[nH]c2ccc(OC)nc2c1CCNC(=O)C(F)F [Ex 48]	109%
CNC(=O)c1[nH]c2c(F)cc(OC)cc2c1CCNC(=O)C(F)F [Ex 53]	105%

same assay, conditions: HEK293 cells stably expressing human MT2 and Gq/i chimeric G-protein; intracellular Ca2+ by FLIPR

Structure (SMILES)	EC50
CCCC(=O)NCCc1c(C(=O)NC)[nH]c2cc(Cl)c(OC)cc12 [Ex 34, 3-[2-(butyrylamino)ethyl]-6-chloro-5-methoxy-N-methyl-1H-indole-2-carboxamide]	4.4 nM
CNC(=O)c1[nH]c2ccc(OC)nc2c1CCNC(=O)C(F)F [Ex 48]	43 nM
CNC(=O)c1[nH]c2c(F)cc(OC)cc2c1CCNC(=O)C(F)F [Ex 53]	9.2 nM

target: human MT1 receptor (Homo sapiens, UniProt P48039); experiment: Activation of human MT1 receptor in receptor-expressing HEK293 cells (intracellular Ca2+, FLIPR); assay type: cell-based; settings: HEK293, read-out: MT1 Emax (%)
Sequence (P48039 whole entry): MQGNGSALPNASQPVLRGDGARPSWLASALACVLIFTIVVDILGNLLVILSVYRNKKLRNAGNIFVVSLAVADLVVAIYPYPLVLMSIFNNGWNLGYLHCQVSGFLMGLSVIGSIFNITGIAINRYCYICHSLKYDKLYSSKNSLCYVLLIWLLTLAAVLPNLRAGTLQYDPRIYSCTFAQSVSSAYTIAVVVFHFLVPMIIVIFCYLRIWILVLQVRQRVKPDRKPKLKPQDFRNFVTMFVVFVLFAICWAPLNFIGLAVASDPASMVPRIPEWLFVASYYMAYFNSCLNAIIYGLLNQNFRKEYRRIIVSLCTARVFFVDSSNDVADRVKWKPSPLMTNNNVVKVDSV
Method: as §1, §2, §3, §4, §5, §6, §7

Structure (SMILES)	Emax
COc1ccc2[nH]cc(CCNC(C)=O)c2c1 [Melatonin, melatonin, reference compound]	94%

same assay, conditions: HEK293; maximum reaction by ramelteon taken as 100%, solvent only 0%; read-out: MT1 Emax (%)

Structure (SMILES)	Emax
CCCC(=O)NCCc1c(C(=O)NC)[nH]c2cc(Cl)c(OC)cc12 [Ex 34, 3-[2-(butyrylamino)ethyl]-6-chloro-5-methoxy-N-methyl-1H-indole-2-carboxamide]	75%
CNC(=O)c1[nH]c2ccc(OC)nc2c1CCNC(=O)C(F)F [Ex 48]	122%
CNC(=O)c1[nH]c2c(F)cc(OC)cc2c1CCNC(=O)C(F)F [Ex 53]	103%

same assay, conditions: HEK293 cells stably expressing human MT1 and Gq/i chimeric G-protein; intracellular Ca2+ by FLIPR

Structure (SMILES)	EC50
CCCC(=O)NCCc1c(C(=O)NC)[nH]c2cc(Cl)c(OC)cc12 [Ex 34, 3-[2-(butyrylamino)ethyl]-6-chloro-5-methoxy-N-methyl-1H-indole-2-carboxamide]	32 nM
CNC(=O)c1[nH]c2ccc(OC)nc2c1CCNC(=O)C(F)F [Ex 48]	12 nM
CNC(=O)c1[nH]c2c(F)cc(OC)cc2c1CCNC(=O)C(F)F [Ex 53]	19 nM

tested on: urethral pressure; experiment: Effect of test compound on urethral pressure in anesthetized rats; assay type: in vivo, rat; settings: 0.01 mg/kg (rat dose presumed to correspond to clinical dose), urethane-anesthetized SD female rats
Source text: Test Example 3 Test to Evaluate Effect of Test Compound on Urethral Pressure
It has been reported that an increase in the urethra pressure is useful for the treatment of urinary incontinence, particularly stress urinary incontinence (for example, Drugs, 64, 14, 1503-1516 (2004)). In order to confirm whether the compound of the present invention increases the urethra pressure and thus is useful for the treatment of urinary incontinence, particularly stress urinary incontinence, the following tests were carried out.
SD female rats were anesthetized with urethane and subjected to laparotomy. Then, the bladder apex was incised and a catheter was inserted from the bladder apex. Further, the catheter tip was ligated and fixed to be located in the proximal urethra portion. The catheter was connected to a pressure transducer and an infusion pump. Further, a catheter for administrating the compound was fitted into the femoral vein. Physiological saline was continuously infused into the urethra and the perfusion pressure in the urethra was measured. After the urethral pressure was stabilized, the test compound that had been dissolved in physiological saline, or physiological saline including 5% dimethylacetamide and 0.5% Cremophor was administered intravenously at 0.1 mg/kg, and a change in urethral pressures was measured.
Further, the results of administering an active metabolite of midodrine (ST-1059: purchased from CHEMIZON) (J. Urology, 118, 980-982 (1977)) which is an α1 adrenoceptor agonist and has an effect on stress urinary incontinence in rat doses (0.01 mg/kg) presumed to correspond to the clinical doses are referenced and shown in the Tables below. The increment value in the urethra pressures of ramelteon and the Example compounds of the present invention at the time of administration are shown in Table 4. Ex represents Example No. of the test compound.

Structure (SMILES)	Increment value in the urethra pressures (mmHg)
COc1ccc(OC)c(C(O)CN)c1 (centres unmarked) [ST-1059, reference compound]	4.9 ± 1.1 mmHg

same assay, conditions: 0.1 mg/kg intravenously, urethane-anesthetized SD female rats

Structure (SMILES)	Increment value in the urethra pressures (mmHg)
CNC(=O)c1[nH]c2ccc(OC)nc2c1CCNC(=O)C(F)F [Ex 48]	7.3 ± 0.7 mmHg
CNC(=O)c1[nH]c2c(F)cc(OC)cc2c1CCNC(=O)C(F)F [Ex 53]	10.5 ± 0.6 mmHg

tested on: isolated urethra; experiment: Test confirming that urethra contractile action by ramelteon is through MT1 and/or MT2 receptor (Luzindole); set-up: species or system rat; settings: Luzindole 0.1 μM, 20 minutes before ramelteon 1 μM; first contraction as 100%
Method: (2) Test for Confirming that Urethra Contractile Action is Action Through MT1 and/or MT2 Receptor
The urethra was isolated from an SD female rat having a body weight of 100 to 500 g. The isolated urethra was incised longitudinally to give a rectangular strip specimen having a width of about 3 mm, which was suspended in the muscle parallel to the circular to 10 mL of a tissue bath filled with a Krebs-Henseleit solution (pH 7.4). […] The resting tension was set to 0.5 g to record the isometric contraction. After the resting tension was stabilized, contraction was elicited by the addition of 10 μM phenylephrine. After washing and stabilizing, the test compound (ramelteon) at 1 μM was added to measure a contractile response. After washing and stabilizing, a solvent or Luzindole (purchased from Wako Pure Chemical Industries, Ltd.) (0.1 μM, 1 μM, or 10 μM) was added to the same specimen, and after 20 minutes, ramelteon at 1 μM was added again thereto to measure a contractile reaction. When the first contraction by ramelteon at 1 μM was taken as 100%, the second contractile rate by ramelteon was measured.

Structure (SMILES)	Second contractile rate by ramelteon (%)
CC(=O)NCCc1c(Cc2ccccc2)[nH]c2ccccc12 [Luzindole]	88 ± 11%

same assay, conditions: Luzindole 1 μM, 20 minutes before ramelteon 1 μM; first contraction as 100%

Structure (SMILES)	Second contractile rate by ramelteon (%)
CC(=O)NCCc1c(Cc2ccccc2)[nH]c2ccccc12 [Luzindole]	75 ± 5%

same assay, conditions: Luzindole 10 μM, 20 minutes before ramelteon 1 μM; first contraction as 100%

Structure (SMILES)	Second contractile rate by ramelteon (%)
CC(=O)NCCc1c(Cc2ccccc2)[nH]c2ccccc12 [Luzindole]	61 ± 9%

same assay, conditions: treatment with Luzindole 0.1-10 μM, in words

Structure (SMILES)	inhibition of isolated urethra contractile action by ramelteon
CC(=O)NCCc1c(Cc2ccccc2)[nH]c2ccccc12 [Luzindole]	inhibited in a concentration-dependent manner

Reference: patent US9376449B2, “Indole carboxamide derivative” (Astellas Pharma Inc., priority 2012, dated 2016)
